One block for each compound: values may come before it.
What was measured:
BBB [1] = assay: Length of time of BBB opening following administration of peptide; assay type: in vivo, mice
Protocol: A series of mice were administered 300 μg of K16ApoE followed by administration of ˜40 μL 2% EB at various time points. As a control, only EB was injected, cardiac perfusion was done 6 hours after EB injection, followed by collection of brain. For the other images, 300 μg of K16ApoE was first injected, then EB was injected after 5 min, 10 min, 30 min, 1 h, 2 h and 4 h, respectively. Then, perfusion and collection of brain was done after 5 h 55 min, 5 h 50 min, 5 h 30 min, 5 h, 4 h and 2 h, respectively).

BBB [2] = assay: EB transportation across the BBB as a function of the amount of K16ApoE administered; assay type: in vivo, mouse
Protocol: (§1) To explore whether K16ApoE (SEQ. ID. NO: 42) compromises integrity of the BBB, the peptide was first injected by iv followed by injection of Evan's Blue (EB; a routinely used small molecule blue dye with a molecular weight of 960.81) by iv into the femoral vein of a mouse. Cardiac perfusion was performed and the brains of the mice were removed and evaluated approximately 2 hours following injection of the dye. As controls, a peptide consisting of 16 lysine residues (K16) and a 20-amino acid peptide comprising the LDLR-binding domain of ApoE (ApoE-FITC; (SEQ ID NO:13)), were used. The particulars of each administration are as follows: • 1) 67.5 nanomoles of K16 injected first, then ˜40 μL 2% EB was injected. • 2) Same as 1 but K16 and EB mixed prior to injection. • 3) 67.5 nanomoles of ApoE-FITC injected first, then ˜40 μL 2% EB was injected. • 4) Same as 3 but ApoE-FITC peptide and EB was mixed prior to injection. • 5) 67.5 nanomoles of K16ApoE injected first, then ˜40 μL 2% EB was injected. • 6) Same as 5 but K16ApoE peptide and EB was mixed first before injection.
Using the method described in Example 1, various amounts of K16ApoE (SEQ. ID. NO: 42) was injected followed by administration of ˜40 μL 2% EB. […]

[3] = test system: brains, lungs, heart, liver, spleen and kidney; assay: Tissue distribution of Evans Blue (EB) after delivery via K16ApoE; assay type: in vivo, mice
Protocol: Mice were injected with various amounts of K16ApoE peptide (0 μg, 150 μg, 100 μg, 75 μg, 50 μg, 25 and μg) first. EB (40 μL of a 2% solution was injected 10 min after injection of the peptide. Tissues (brains, lungs, heart, liver, spleen and kidney) were collected 1 h after EB delivery. All injections were through the femoral vein.

BBB [4] = assay: Transportation of dyes of various molecular weights across the BBB (K16ApoE or K16ApoE+IgG); assay type: in vivo, mouse
Protocol: as §1
To evaluate delivery of molecules of various molecular weights across the blood brain barrier, the method of Example 1 was used with Evan's Blue (EB), MW 960.81 gmol; Crocein Scarlet, MW 584.54 g/mol; and Light green SF, MW 792.86 g/mol. […]

BBB [5] = assay: Transportation of Evan's Blue (EB) dye across the BBB after iv injection of peptide; assay type: in vivo, mouse; settings: 67.5 nanomoles K16ApoE iv injected first, then ~40 μL 2% EB; brain evaluated ~2 hours after dye
Protocol: as §1

BBB [6] = assay: Comparison of delivery of EB to the brain by K16ApoE and K26ApoE; assay type: in vivo; settings: for EB dye in brain: EB 10 min later, brain collected 1 h after EB
Protocol: This experiment was carried out to evaluate if lengthening the lysine-chain will have any effect on the delivery of small molecules to the brain. ˜40 μL of 2% EB was injected 10 min after injection of various amounts of K16ApoE (75 μg, 100 μg, 150 μg, 250 μg, and 300 μg) or K26ApoE (25 μg, 50 μg, 75 μg, 100 μg, 125 μg, and 150 μg). K26ApoE (SEQ ID NO: 139) having the sequence: Brain tissue as was collected 1 h following EB injection. All injections were at the femoral vein.

brain = assay: Residence time of EB dye in brain following transportation by the peptide; assay type: in vivo, mice
Protocol: A series of mice were administered 300 μg of K16ApoE followed by administration of ˜40 μL 2% EB 10 min after administration of the peptide. As a control, only EB was injected, cardiac perfusion was done 6 hours after EB injection, followed by collection of brain. For all other mice, perfusion and collection of brains was performed 15 min, 30 min, 1 h, 2 h, 4 h, 6 h, 12, h, and 24 h following administration of EB.

[7] = control: only EB injected, perfusion 6 hours after EB

Compound: KKKKKKKKKKKKKKKKLRVRLASHLRKLRKRLLRDA (KKKKKKKKKKKKKKKKLRVRLASHLRKLRKRLLRDA) [K16ApoE]
EB dye in brain (BBB [1]; EB injected 5 min, 10 min, 30 min after 300 μg K16ApoE): observed | EB dye in brain (BBB [1]; EB injected 1 h and 2 h after 300 μg K16ApoE): decreased intensity of dye observed | EB dye in brain (BBB [1]; EB injected 4 h after 300 μg K16ApoE): little to no EB dye remaining | EB dye observed in the brain (BBB [2]; increasing amounts of K16ApoE (100, 200, 300 μg) injected before ~40 μL 2% EB): increasing amount of EB dye present in the brain | EB dye observed in the brain (BBB [2]; less than 100 μg K16ApoE injected before ~40 μL 2% EB): no dye is observed | amount of K16ApoE giving best EB entry into brain ([3]; EB 10 min after peptide, tissues collected 1 h after EB): 150 µg | transport of dye to the brain (BBB [4]; 300 μg K16ApoE (alone or + 300 μg IgG) injected first, then dye (EB, Crocein Scarlet, Light green SF; ~40 μL 2%)): allowed transport of molecules of various sizes to the brain | transport of dye to the brain (BBB [4]; 300 μg K16ApoE mixed with dye (~40 μL 2%) prior to injection): does not appear to cross the BBB | EB dye transported to the brain (blue coloring of brain) (BBB [5]): crosses the BBB and is transported to the brain | EB dye in brain (BBB [6]; 75 μg of peptide): no dye was observed | EB dye in brain (BBB [6]; 100 μg of peptide): only a small amount of dye present | EB dye in brain (BBB [6]; 150 μg of peptide and above): Increasing EB is observed

Compound: KKKKKKKKKKKKKKKKKKKKKKKKKKLRVRLASHLRKLRKRLLRDA (KKKKKKKKKKKKKKKKKKKKKKKKKKLRVRLASHLRKLRKRLLRDA) [K26ApoE]
EB dye in brain (BBB [6]; 25 μg of peptide): no dye was observed | EB dye in brain (BBB [6]; 50 μg of peptide): only a small amount of dye present | EB dye in brain (BBB [6]; 75 μg of peptide): Increasing EB is observed | effectiveness in delivering EB to the brain relative to K16ApoE (BBB [6]; K26ApoE vs K16ApoE): approximately two-fold

EB dye in brain (BBB [1]; [7]): no dye was observed | time after administration up to which dye remains intense (retained well) in brain (brain; EB 10 min after 300 μg K16ApoE): up to 4 h | time post EB administration at which dye is first observed in brain (brain; EB 10 min after 300 μg K16ApoE): 15 min | time after administration up to which dye is still observed, less intensely, in brain (brain; EB 10 min after 300 μg K16ApoE, longest time point tested): up to 24 hours | EB dye in brain (brain; [7]): no dye is observed
Compound: Cc1cc(-c2ccc(/N=N/c3ccc4c(S(=O)(=O)O)cc(S(=O)(=O)O)c(N)c4c3O)c(C)c2)ccc1/N=N/c1ccc2c(S(=O)(=O)O)cc(S(=O)(=O)O)c(N)c2c1O [EB, Evan's Blue]
EB in brain ([3]; EB 10 min after 0-150 μg K16ApoE, tissues collected 1 h after EB): goes into brain only after injection of the peptide | EB stain of tissues ([3]; EB injected after K16ApoE injection): Kidney, spleen and liver are stained with EB | EB stain of tissues ([3]; EB injected without K16ApoE): Kidney, spleen, liver and heart show some EB-stain

Source: patent US20140314663A1, “PEPTIDE-MEDIATED DELIVERY OF ACTIVE AGENTS ACROSS THE BLOOD-BRAIN BARRIER” (MAYO FOUNDATION FOR MEDICAL EDUCATION AND RESEARCH, priority 2011, published 2014)
